Source: patent publication US10906899B2, “Bicyclic fused pyrazole derivatives for the treatment of RSV” (GEORGIA STATE UNIVERSITY RESEARCH FOUNDATION, INC., priority 2016, dated 2021)
Read-outs that look alike come from different tables or passages of the source.

System: RSV
Test: Dose-response counterscreen: luciferase reporter virus infection of BEAS-2B cells (EC50)
Format: cell-based, respiratory syncytial virus (RSV)
Details: human respiratory syncytial virus, read-out: Potency Range (EC50 values)
[1] = A series compounds, anti-RSV potency

For `COc1cc(C2CC(=O)Nc3c2cnn3-c2nc3ccccc3s2)ccc1OC1CCCC1` (stereo not shown) [AVG-006, 1-(benzo[d]thiazol-2-yl)-4-(4-(cyclopentyloxy)-3-methoxyphenyl)-4,5-dihydro-1H-pyrazolo[3,4-b]pyridin-6(7H)-one], the EC50 [1] was 1 to 10 µM.
`COc1ccc2nc(-n3c(=O)c4c(C)n(Cc5cccc(Cl)n5)c(=O)cc4n3Cc3ccccc3)sc2c1` [AVG-189] gave an EC50 (B series compounds) of 0.01 to 0.1 µM.
Compound `Cc1c2c(=O)n(-c3ccccn3)n(Cc3ccccc3)c2cc(=O)n1Cc1cccc(F)c1` [AVG-131] has an EC50 (B series compounds) of 0.1 to 1 µM.
Work on `Cc1c2c(=O)n(-c3nc4ccccc4s3)n(Cc3ccccc3)c2cc(=O)n1CC1CCCC(=O)N1` (stereo not shown) [AVG-210] yielded an EC50 (B series compounds) of 10 to 20 µM.
For `Cc1c2c(=O)n(-c3nc4ccccc4s3)n(Cc3ccccc3)c2cc(=O)n1Cc1cccnc1` [AVG-088], the EC50 (B series compounds) was 1 to 10 µM.
Compound `Cc1c2c(=O)n(-c3nc4ccccc4s3)n(Cc3cnco3)c2cc(=O)n1Cc1ccco1` [AVG-126] has an EC50 (B series compounds) of 1 to 10 µM.
`COc1ccc(Cn2ncc3c2NC(=O)CC3c2ccc(OC3CCCC3)c(OC)c2)c(OC)c1` (stereo not shown) [AVG-181] gave an EC50 [1] of 1 to 10 µM.
In the case of `Cc1c2c(=O)n(-c3nc4cccnc4s3)n(Cc3ccccc3)c2cc(=O)n1Cc1cccc(Cl)n1` [AVG-198], the EC50 (B series compounds) is reported as 0.1 to 1 µM.
Work on `Cc1c2c(=O)n(-c3ccccn3)n(Cc3ccccc3)c2cc(=O)n1Cc1cccc(-c2ccccc2)n1` [AVG-229] yielded an EC50 (B series compounds) of 0.1 to 1 µM.
Compound `Cc1c2c(=O)n(-c3ccccn3)n(Cc3ccc(OC(C)C)cc3)c2cc(=O)n1Cc1cccc(Cl)n1` [AVG-234] has an EC50 (B series compounds) of 0.1 to 1 µM.
`Cc1c2c(=O)n(-c3nc4ccccc4s3)n(Cc3ccccc3)c2cc(=O)n1Cc1ccncc1` [AVG-089] showed an EC50 (B series compounds) of 1 to 10 µM.
With `Cc1c2c(=O)n(-c3nc4ccccc4s3)n(CC(C)C)c2cc(=O)n1Cc1ccco1` [AVG-070] the EC50 (B series compounds) was 1 to 10 µM.
Work on `COc1cccc(Cn2c3cc(=O)n(Cc4cccc(Cl)n4)c(C)c3c(=O)n2-c2nc3ccccc3s2)c1` [AVG-177] yielded an EC50 (B series compounds) of 0.1 to 1 µM.
`COc1cccc(Cn2c(C)c3c(=O)n(-c4ccccn4)n(Cc4ccc(OC(C)C)cc4)c3cc2=O)n1` [AVG-253] was tested, and the EC50 (B series compounds) was 0.1 to 1 µM.
Work on `Cc1c2c(=O)n(-c3ccccn3)n(Cc3ccccc3)c2cc(=O)n1Cc1ccc(Cl)cc1` [AVG-078] yielded an EC50 (B series compounds) of 0.1 to 1 µM.
For `Cc1c2c(=O)n(-c3nc4ccccc4s3)n(Cc3ccccc3)c2cc(=O)n1Cc1cccnn1` [AVG-091], the EC50 (B series compounds) was 1 to 10 µM.
`Cc1c2c(=O)n(-c3nc4ccccc4s3)n(Cc3ccccc3)c2cc(=O)n1Cc1cnccn1` [AVG-093] showed an EC50 (B series compounds) of 0.1 to 1 µM.
`Cc1c2c(=O)n(-c3nc4ccccc4s3)n(Cc3ncco3)c2cc(=O)n1Cc1ccco1` [AVG-124] showed an EC50 (B series compounds) of 1 to 10 µM.
`Cc1c2c(=O)n(-c3nc4ccccc4s3)n(CC3CCN(C)CC3)c2cc(=O)n1Cc1ccco1` [AVG-027] was tested, and the EC50 (B series compounds) was 10 to 20 µM.
Work on `Cc1c2c(=O)n(-c3nc4ccccc4s3)n(C)c2cc(=O)n1CCN1CCOCC1` [AVG-029] yielded an EC50 (B series compounds) greater than 20 µM.
`Cc1c2c(=O)n(-c3nc4ccccc4s3)n(Cc3ccccc3)c2cc(=O)n1Cc1ccc(Cl)c(Cl)n1` [AVG-168] showed an EC50 (B series compounds) of 0.1 to 1 µM.
`COc1ccc(C2CC(=O)Nc3c2cnn3-c2ccccc2)cc1OC1CCCC1` (stereo not shown) [AVG-065, 4-(3-(cyclopentyloxy)-4-methoxyphenyl)-1-phenyl-4,5-dihydro-1H-pyrazolo[3,4-b] pyridin-6(7H)-one] gave an EC50 [1] of 10 to 20 µM.
`Cc1c2c(=O)n(-c3nc4ccccc4s3)n(Cc3ccncc3)c2cc(=O)n1Cc1ccco1` [AVG-121] was tested, and the EC50 (B series compounds) was 1 to 10 µM.
`Cc1c2c(=O)n(-c3nc4ccccc4s3)n(Cc3ccccc3)c2cc(=O)n1CC1CCOC1` (stereo not shown) [AVG-075] showed an EC50 (B series compounds) of 1 to 10 µM.
For `Cc1c2c(=O)n(-c3nc4ccccc4s3)n(Cc3ccccc3)c2cc(=O)n1Cc1cccc(Cl)n1` [AVG-094], the EC50 (B series compounds) was 0.1 to 1 µM.
Compound `Cc1cccc(Cn2c(C)c3c(=O)n(-c4nc5ccccc5s4)n(Cc4ccccc4)c3cc2=O)n1` [AVG-157] has an EC50 (B series compounds) of 0.1 to 1 µM.
`Cc1c2c(=O)n(-c3nc4ccccc4s3)n(Cc3ccccc3)c2cc(=O)n1Cc1ccnn1C` [AVG-102] gave an EC50 (B series compounds) of 1 to 10 µM.
In the case of `CCc1c2c(=O)n(-c3nc4ccccc4s3)n(Cc3ccccc3)c2cc(=O)n1Cc1cccc(Cl)n1` [AVG-165], the EC50 (B series compounds) is reported as 1 to 10 µM.
With `Cc1c2c(=O)n(-c3ccccc3)n(Cc3ccccc3)c2cc(=O)n1Cc1ccco1` [AVG-080] the EC50 (B series compounds) was 1 to 10 µM.
For `Cc1c2c(=O)n(-c3nc4ccccc4s3)n(C)c2cc(=O)n1Cc1ccco1` [AVG-023], the EC50 (B series compounds) was greater than 20 µM.
In the case of `Cc1c2c(=O)n(-c3ccco3)n(Cc3ccccc3)c2cc(=O)n1Cc1ccccn1` [AVG-110], the EC50 (B series compounds) is reported as 10 to 20 µM.
For `Cc1c2c(=O)n(-c3nc4ccccc4s3)n(Cc3ccccc3)c2cc(=O)n1Cc1cncc(Cl)n1` [AVG-162], the EC50 (B series compounds) was 10 to 20 µM.
`Cc1c2c(=O)n(-c3nc4ccccc4s3)n(Cc3ccccc3)c2cc(=O)n1Cc1nccn1C` [AVG-098] gave an EC50 (B series compounds) of 1 to 10 µM.
Compound `Cc1c2c(=O)n(-c3nc4ccccc4s3)n(Cc3ccccc3)c2cc(=O)n1Cc1ccco1` [AVG-021, 2-(benzo[d]thiazol-2-yl)-1-benzyl-5-(furan-2-ylmethyl)-4-methyl-1H-pyrazolo[4,3-c] pyridine-3,6(2H,5H)-dione] has an EC50 (B series compounds) of 1 to 10 µM.
`Cc1c2c(=O)n(-c3nc4ccccc4s3)n(Cc3ccccc3)c2cc(=O)n1Cc1cccc(F)n1` [AVG-214] was tested, and the EC50 (B series compounds) was 0.1 to 1 µM.
Work on `Cc1c2c(=O)n(-c3ccccn3)n(Cc3ccccc3)c2cc(=O)n1Cc1ccccc1Cl` [AVG-127] yielded an EC50 (B series compounds) of 0.1 to 1 µM.
With `COc1cccc(Cn2c(C)c3c(=O)n(-c4ccccn4)n(Cc4ccccc4)c3cc2=O)c1` [AVG-134] the EC50 (B series compounds) was 0.1 to 1 µM.
